Our source for the melting point values is a melting point compilation (Tetko et al.; mined from patent text by program, amines drawn as free bases though some values may be those of a salt).

Turning to `CCOC(=O)C(C)(C)Oc1ccc(-c2ccc(CCNC(=O)c3cccc(C)c3)cc2)cc1`, the melting point (as a rule, the temperature, or range, at which the solid turns liquid) was less than 20 °C. For `O[C@@H]1[C@H](O)[C@H](O)CO[C@H]1n1c(Br)nc2c(F)c(Cl)c(Cl)cc21`, the melting point stood at 165 °C. Under `Nc1nc(N)c2cc(Sc3ccc(Cl)c(Cl)c3)ccc2n1` stands 232 to 234 °C; under `COc1cccc(CN2CCC(NC(=O)c3cnc4c(OC)cccc4c3Nc3ccc(C(=O)NC4CCN(Cc5ccccc5)CC4)cc3)CC2)c1`, 135 to 142 °C.

`O=C1CCC(N2Cc3c(OCc4ccc(CN5CCC(c6cccc(F)c6)CC5)cc4)cccc3C2=O)C(=O)N1` (stereo not given) gave a melting point of 200 to 202 °C. For the compound `CS(=O)(=O)c1ccc(-c2cc(CO[N+](=O)[O-])nn2C2CCCCCC2)cc1`, the melting point was in the range of 119 to 120 °C. As for `CN(C)CC1CNc2cc(Cl)ccc2C1` (stereo not given), the melting point lay within 107 to 110 °C. `COc1cc2ccc(C(=O)C(C)C)cc2cc1OC` registered a melting point of 103 to 105 °C. Regarding `Nc1ccc2ncc(C(=O)NCc3ccc(Cl)cc3)c(O)c2c1`, the melting point was greater than 225 °C. With `Cc1ccc(-c2cc(Cl)c3ccccc3n2)cc1` the figure was 75 to 77 °C; with `O=c1c2c(F)cccc2nc2sccn12`, 205 to 207 °C; with `Cc1ccc(-c2c(NS(=O)(=O)c3ccc(C(C)(C)COC4CCCCO4)cc3)ncnc2OCCOc2ncc(Br)cn2)cc1` (stereo not given), 138 to 139 °C. With `CS(=O)(=O)c1ccc(C(CC2CCCC2)C(=O)Nc2nc3ccccc3[nH]2)cc1C#N` (stereo not given) the figure was 148 to 152 °C. The compound `O=C(O)[C@@H]1C[C@H]1/C=C\c1ccc(-c2nc3ccccc3o2)cc1` (relative stereo) had a melting point of 171 to 172 °C. Under `CC(=O)OCC(=O)C1(OC(C)=O)C(C)CC2C3CC(Cl)C4=CC(=O)C=CC4(C)C34OC4CC21C` (stereo not given) stands 211 °C; under `O=C(NCC1CCNCC1)c1ccccc1`, 119 °C; under `c1cc2c(c(NC3=NCCO3)c1)CCCC2`, 101 to 103 °C. On to `O=C1Nc2ccccc2S(=O)(=O)N1C1CCN(Cc2ccccc2)CC1`, for which the melting point lay within 169 to 171 °C. Under `O=C(NCC(=O)c1c(O)cc(O)cc1OCc1ccccc1)OCc1ccccc1` stands 129 to 131 °C; under `COC(=O)c1ccc2oc(=O)n(Cc3cccc(-c4ncc(OCCCN(C)C)cn4)c3)c2c1`, 125 °C; under `COc1ccccc1NC(=O)NCc1cccc2c1C(=O)N(C1CCC(=O)NC1=O)C2=O` (stereo not given), 214 to 216 °C. `C=CCOC(=O)C1=C(C)Nc2nc(N)nc(N)c2C1c1cccc([N+](=O)[O-])c1` (stereo not given) showed a melting point of 188 °C. In the case of `CCCC1=C(C#N)C(c2ccccc2Cl)c2c(n[nH]c2C2CC2)N1` (stereo not given), the melting point came out at 270 °C. For `CCC(C)C(NC(c1ccccc1)c1ccccc1)P(O)O` (stereo not given), the melting point was 174 to 176 °C. In the case of `CS(=O)(=O)c1[nH]nc(-c2ccc(F)cc2)c1-c1ccncc1`, the melting point is 297 to 300 °C. Turning to `CC(=O)Oc1ccc(-c2ccc(C=C(Br)Br)s2)cc1`, the melting point fell in the range of 115 to 116 °C. `CCCCCCOc1c(C=Cc2ccc(Br)cc2)ccc2c(OCCCCCC)c(C=Cc3ccc(Br)cc3)ccc12`: the melting point fell in the range of 170 to 172 °C.

In turn, `COc1ccc(S(=O)(=O)C(C)(Cc2ccc(OCCN3CCCCC3)cc2)C(N)=O)cc1` (stereo not given) had a melting point of 98 °C.

`CCOC(=O)N1CCSC1COc1ccccc1OC` (single isomer, unassigned; (-)): the melting point lay within 64 to 65 °C.

For the compound `OCCSC1=NN(SCCO)CS1`, the melting point turned out to be 80 °C. Compound `O=C(Nc1ccc(Cl)cc1[N+](=O)[O-])NC1CCCCC1` came in with a melting point of 115 to 116 °C. `N#CC1CN(C(=O)[C@H](NC(=O)c2c[nH]c3ncc(-c4ccc(C(F)(F)F)cc4)nc23)C2CC2)C1`: the melting point was in the range of 207 to 209 °C. Under `COP(=O)(Cc1ccc(NC(=O)/C=C/c2cnn(C)c2-c2ccc(F)cc2)cc1)OC` stands 209 to 210 °C; under `CC(C)(C)CNc1nnc(-c2ccccc2)c2ccccc12`, 216 °C; under `Cc1oc(-c2cccs2)nc1COc1ccc(CON=C(CCCCCCC(=O)O)c2ccccc2)cc1`, 106 to 108 °C. In turn, `CCS(=O)(=O)CC=Cc1ccccc1` returned a melting point of 100 °C. Under `CC(C)(C)OC(=O)NC1CSCCNC1=O` (stereo not given) stands 200 to 201 °C; under `COc1ccc(-c2cc(-c3ccc(-c4c(Cc5ccccc5)oc5ccccc45)cc3)ccc2OC(Cc2ccccc2)C(=O)O)cc1` (stereo not given), 73 to 75 °C; under `NC(=O)c1c(F)ccc(OCc2nc3ncccc3o2)c1F`, 180 to 181 °C. In the case of `Cc1nc(N2CCN(Cc3ccc4nonc4c3)C2=O)sc1C(=O)NCc1cccnc1`, the melting point lay in the range of 110 to 112 °C. Consider `COc1ccc(C(C#N)Cc2c(Cl)cncc2Cl)c2c1OC(C)(C)C2` (stereo not given), for which the melting point fell in the range of 158 to 162 °C. In turn, `CN(N=Cc1ccccc1C(=O)O)c1nc2ccccc2o1` had a melting point of 253 to 255 °C.

`Cc1cc(C)c(Nc2nc(C)ncc2S(=O)(=O)c2ccc(-c3ncccn3)cc2)c(C)c1` had a melting point of 215 to 217 °C. The compound `COc1c2ccccc2c(-c2cc(Br)c(O[C@H](Cc3ccccc3)C(=O)O)c(Br)c2)c2c1sc1ccccc12` had a melting point of 102 to 110 °C. `N#CC(c1ccc(Cl)cc1)c1ccc(-n2ncc(=O)[nH]c2=O)cc1Cl` (stereo not given): the melting point stood at 197 °C. In the case of `CCCCCCCCCCCCCCCCCCOc1cccc(C(=O)O)c1OCCCOc1ccc(O)cc1`, the melting point lay in the range of 81 to 83 °C. As for `O=c1nc(-c2ccc3c(c2)OCO3)c2cc3c(cc2n1CC1CC1)OCO3`, the melting point lay within 255 to 260 °C. Compound `N#Cc1ccc2[nH]cc(C3CCC(=O)C3)c2c1` (stereo not given) came in with a melting point of 136 to 138 °C. With `COC(=O)c1ccc2oc(-c3ccccc3O)cc(=O)c2c1` the figure was 290 to 291 °C; with `Fc1cc(F)c2c(c1)CC(n1cc[nH]c1=S)C2` (stereo not given), 185 to 186 °C. With `CCCCCCCNC(=O)Nc1ccccc1CNCc1cc(C(C)(C)C)c(O)c(C(C)(C)C)c1` the figure was 135 to 138 °C; with `COc1cnc(CSc2nc3cc(OC(F)F)ccc3[nH]2)c(C)c1OC`, 100 to 102 °C; with `Cc1nnc2n1-c1sc(Cl)cc1C(c1ccccn1)=NC2`, 174 to 176 °C. In the case of `Cc1cn(-c2nc(C3=Nc4ccc(-c5ccc(F)cc5)cc4NC(=O)C3)cs2)cn1`, the melting point came to 229 °C. On to `Cc1cc(Sc2ccc([N+](=O)[O-])cc2)cc(Br)n1`, for which the melting point lay in the range of 124 to 126 °C.

As to `CC(=Nc1ccc(O)cc1C)c1ccccc1O`, the melting point lay in the range of 144 to 156 °C.

`CC=C1CCC2C3C(O)CC4CC(O)CCC4(C)C3CCC12C` (stereo not given) yielded a melting point of 160 to 161 °C. The compound `O=C(O)c1cccc(-c2ccc3ncn(Cc4ccc(Cl)cc4Cl)c3n2)c1` registered a melting point of 258 to 260 °C. Compound `CN(c1cccc2cc(-c3ncc(CCC#N)s3)[nH]c12)S(=O)(=O)c1cccs1` came in with a melting point of 207 to 208 °C. The compound `CC(=O)Oc1ccc(CC(=O)Nc2cccc(/C=C/c3nc(C4CCC4)cs3)c2)c(C(=O)O)c1` registered a melting point of 176 to 179 °C.

Compound `CS(=O)(=O)C(=C1CN(C(c2ccccc2)c2ccccc2)C1)c1cc(C(F)(F)F)cc(C(F)(F)F)c1` displayed a melting point of 192 °C. Compound `c1ccc(COc2ccc3c(ccn3Nc3ccncc3)c2)cc1` yielded a melting point of 143 to 145 °C.

`CC(=O)OCCCCN(C)CCN(C)C(=O)[C@@H]1CCCN1S(=O)(=O)c1ccc(Cl)c(COc2cccc3c(-n4ccnc4)cc(C)nc23)c1Cl` yielded a melting point of 76 °C.

The compound `COC(=O)C1=C(C)NC(C)=C(C(=O)OCCc2ccc(OCC(O)CO)cc2)C1c1cccc([N+](=O)[O-])c1` (stereo not given) had a melting point of 117 to 118 °C. `O=C(c1ccccc1)c1cnn2c1NCCC2` returned a melting point of 173 to 174 °C. As to `COc1ccc(-c2cc(COS(C)(=O)=O)c(=O)n(Cc3ccc(F)cc3)n2)cc1F`, the melting point lay within 125 to 133 °C. `COc1cc(OC)cc(OC(=O)N2CCCC2=O)c1` gave a melting point of 80 to 81 °C. `CC1(C=NO)OCCc2c1[nH]c1ccccc21` (stereo not given) showed a melting point of 176 to 178 °C. In turn, `C[Si](C)(C)OC(Cn1ccnc1)(Cn1cncn1)c1ccc(F)cc1F` (stereo not given) displayed a melting point of 87 to 89 °C. `COc1ccc(CN(C)CCOc2ccc(NC(=O)c3cccc4c(=O)c5cccc(OC)c5[nH]c34)c(C)c2)cc1OC` came in with a melting point of 178 to 179 °C. Compound `NC(CO)(CO)CCc1ccc(C(=O)CCCCCc2ccccc2)cc1` displayed a melting point of 118 to 120 °C.

In turn, `CC(C)(C)C1=CC(=O)C2=C(CCCC2)C1=O` registered a melting point of 50 to 52 °C. `CCCc1c(OCCCSc2ccc(C(=O)CCC(=O)O)cc2F)ccc(C(C)=O)c1O`: the melting point is 115 to 116 °C. Compound `CCCCOc1ccc(C(=O)CCCCC(=O)O)cc1` had a melting point of 95 °C. On to `CCOC(=O)[C@H](Cc1ccc(Nc2nccc3ccncc23)cc1)NC1=C(Br)C(=O)C12CCCCC2`, for which the melting point was 192 to 195 °C. Consider `CC(C)(C)N1CC(COc2cccc3c2SCCC3)OC1=O` (stereo not given), for which the melting point was 90 °C.

For the compound `O=CCCc1nc(-c2ccc(Cl)cc2)co1`, the melting point is 41 to 42 °C. Under `CN(C)CCN(CCN(C)C)c1cccc(-c2nc3cc(Cl)c(Cl)cc3[nH]2)c1` stands 129 to 132 °C; under `CCCCC(=O)OCC(=O)C1(OC(C)=O)CCC2C3CC(C)C4=CC(=O)C=CC4(C)C3C(O)CC21C` (stereo not given), 148 to 150 °C; under `COc1cc2c(c3c1OC(C)(C)C3)C(c1cccc(N3CCNC3=O)c1)=NC(C)(C)C2`, 225 to 227 °C. As to `CCC(C)(C)n1nnnc1S`, the melting point is 104 to 106 °C. `Cc1cccc(C2=C(c3ccc(S(C)(=O)=O)cc3)CN(C3CC3)C2=O)c1` gave a melting point of 136 to 137 °C. Under `CCC[C@@H]1CCC[C@H](NC(=O)OC(C)(C)C)C(=O)N1` stands 114 to 116 °C; under `CCOC(=O)C[C@H](NC(=O)/C=C/C(=O)c1ccccc1)C(=O)OCC`, 91 to 93 °C; under `CCCOc1ccc(-c2nc3n(c2-c2ccncc2)CCC3)cc1`, 148 to 150 °C.
